In test [1] the test system is 114 CF P. aeruginosa isolates. The experiment in a line: Aerobic and anaerobic MIC susceptibility testing (broth microdilution, CLSI). It is filed as cell-based, Pseudomonas aeruginosa. The note with it: for aerobic versus anaerobic MIC distribution (potency under anaerobic conditions): all 114 P. aeruginosa isolates, FIGS. 2A-D; for increase of geometric mean of the MIC by anaerobic incubation / increase of MIC50 under anaerobic conditions: 114 CF isolates; for increase of MIC50 under anaerobic conditions: CAMHB + 1% KNO3 for anaerobic. The text has this: One hundred and fourteen CF P. aeruginosa isolates were obtained for susceptibility testing from the CF Referral Center for Susceptibility & Synergy Studies at Columbia University (New York, N.Y.) and also from two CF Therapeutics Development Network (TDN) laboratories (Seattle Children's Hospital, Seattle, Wash. and University of North Carolina at Chapel Hill, Chapel Hill, N.C.). About sixty percent were recent isolates (2004-2007) with the remaining forty percent isolated between 1980 and 2004.
The antibiotics used in these studies included tobramycin, levofloxacin, amikacin, and aztreonam which are in use or in development as aerosolized therapies for CF. For aerobic susceptibility tests, levofloxacin hydrochloride, tobramycin sulfate, and amikacin disulfate were purchased from LKT Laboratories (St. Paul, Minn.) and aztreonam base was purchased from MP Biomedicals (Solon, Ohio). All antibiotics used for anaerobic susceptibility tests were purchased from the United States Pharmacopeia (Rockville, Md.).
(§1) Antibiotic MIC endpoints were obtained using the broth microdilution method according to the CLSI reference method. See Clinical and Laboratory Standards Institute. Methods for Dilution Antimicrobial Susceptibility Tests for Bacteria That Grow Aerobically—Seventh Edition: Approved Standard M7-A7. CLSI, Wayne, Pa., USA, 2006. Antibiotics were serially diluted to the following concentrations for aerobic testing: levofloxacin and tobramycin from 0.03-32 mg/L and amikacin and aztreonam from 0.125-128 mg/L. Anaerobic susceptibility testing required the addition of 1% potassium nitrate (KNO3) to cation-adjusted Mueller-Hinton broth (CAMHB) to allow for P. aeruginosa anaerobic respiration. For anaerobic testing, frozen MIC plates were thawed and stored in the anaerobic chamber overnight to ensure elimination of all oxygen prior to inoculation with test strains. The dilution range for all antibiotics was 0.125-128 mg/L for the anaerobic susceptibility tests. Extended incubation of up to 48 hours under anaerobic conditions may be required and was needed for 54% of the isolates.

The subject of test [2] is P. aeruginosa strain PAM1032 (na1B). Description: Levofloxacin MIC against isogenic strain PAM1032. It is filed as cell-based. The note with it: Pseudomonas aeruginosa.
Description: (§2) P. aeruginosa strains PAM1020 (wild-type), PAM1032 (na1B), PAM1481 (na1B gyrA (Asp87Tyr)), and PAM1573 (na1B gyrA (Thr83Ile)) represent relevant efflux-mediated and target mutation resistance mechanisms and were used in the levofloxacin time-kill assays.
as §1, with “The dilution range for all antibiotics was 0.125-128 mg/L for the anaerobic susceptibility tests. Extended incubation of up to 48 hours under anaerobic conditions may be required and was needed for 54% of the isolates.” left out
(§3) Aerobic and hypoxic Mueller-Hinton broth (MHB) cultures were diluted to an initial inoculum of 1×10^7-1×10^8 CFU/ml. […] Agar plates were incubated up to 48 hours at 37° C. and bactericidal activity was assessed. […]

The test system of test [3] is P. aeruginosa strain PAM1573 (na1B gyrA (Thr83Ile)). The experiment in a line: Levofloxacin MIC against isogenic strain PAM1573. It is filed as cell-based. The note with it: Pseudomonas aeruginosa.
Description: as §2
as §1, with “The dilution range for all antibiotics was 0.125-128 mg/L for the anaerobic susceptibility tests. Extended incubation of up to 48 hours under anaerobic conditions may be required and was needed for 54% of the isolates.” left out
as §3

Test [4] relates to P. aeruginosa strain PAM1020 (wild-type). The experiment in a line: Levofloxacin MIC against isogenic strain PAM1020. It is filed as cell-based. The following applies: Pseudomonas aeruginosa.
Description: as §2
as §1, with “The dilution range for all antibiotics was 0.125-128 mg/L for the anaerobic susceptibility tests. Extended incubation of up to 48 hours under anaerobic conditions may be required and was needed for 54% of the isolates.” left out
as §3

The test system of test [5] is P. aeruginosa strain PAM1481 (na1B gyrA (Asp87Tyr)). The experiment in a line: Levofloxacin MIC against isogenic strain PAM1481. It is filed as cell-based. The following applies: Pseudomonas aeruginosa.
Description: as §2
as §1, with “The dilution range for all antibiotics was 0.125-128 mg/L for the anaerobic susceptibility tests. Extended incubation of up to 48 hours under anaerobic conditions may be required and was needed for 54% of the isolates.” left out
as §3

The mark [6] stands for this setting: anaerobic vs aerobic incubation.

≈ marks a conversion by molar mass, not a printed value.

On to `C[C@H]1[C@H](NC(=O)/C(=N\OC(C)(C)C(=O)O)c2csc(N)n2)C(=O)N1S(=O)(=O)O` [aztreonam], for which the “aerobic versus anaerobic MIC distribution (potency under anaerobic conditions)” value in test [1] is reported as “reduced potency”. In test [1] (setting [6]), the “increase of geometric mean of the MIC by anaerobic incubation” value (shortened to “increase of geometric mean of the MIC”) is on record as roughly 6 fold and the “increase of MIC50 under anaerobic conditions” value (shortened to “increase of MIC50”) was 16 fold.
In general, MIC refers to the smallest concentration in the dilution series that meets the test's criterion for growth inhibition. A high value points to a less susceptible organism. Turning to `C[C@H]1COc2c(N3CCN(C)CC3)c(F)cc3c(=O)c(C(=O)O)cn1c23` [levofloxacin], the “increase of MIC50” value in test [1] (setting [6]) is reported as 2 fold. Moreover, the “isolates with MIC increase >4-fold under anaerobic conditions” value in test [1] (anaerobic vs aerobic incubation, share of 114 CF isolates) was found to be 4%. For the same molecule, the minimum inhibitory concentration (MIC) in test [2] was determined as 1 µg/mL (≈ 2.77 µM); in test [3], 8 µg/mL (≈ 22.1 µM); in test [4] it was 0.125 µg/mL (≈ 0.346 µM); in test [5], 4 µg/mL (≈ 11.1 µM).
Take `NC[C@H]1O[C@H](O[C@H]2[C@H](O)[C@@H](O[C@H]3O[C@H](CO)[C@@H](O)[C@H](N)[C@H]3O)[C@H](N)C[C@@H]2N)[C@H](N)C[C@@H]1O` [tobramycin]: the “aerobic versus anaerobic MIC distribution (potency under anaerobic conditions)” value in test [1] was “reduced potency”. Besides, in test [1] (setting [6]), the “increase of geometric mean of the MIC” value is on record as “approximately 7 fold” and the “increase of MIC50” value was found to be 4 fold.
Consider `NCC[C@H](O)C(=O)N[C@@H]1C[C@H](N)[C@@H](O[C@H]2O[C@H](CN)[C@@H](O)[C@H](O)[C@H]2O)[C@H](O)[C@H]1O[C@H]1O[C@H](CO)[C@@H](O)[C@H](N)[C@H]1O` [amikacin], for which the “aerobic versus anaerobic MIC distribution (potency under anaerobic conditions)” value in test [1] is “reduced potency”. In addition, in test [1] (setting [6]), the “increase of geometric mean of the MIC” value is on record as roughly 4 fold.

The values are drawn from patent publication US20210015811A1, “METHODS OF TREATING A PULMONARY BACTERIAL INFECTION USING FLUOROQUINOLONES” (HORIZON ORPHAN, LLC, priority 2009, published 2021).
